According to patent US20230240988A1, “FLUID GEL COMPOSITIONS” (The University of Birmingham, priority 2020, published 2023):
Read-outs that look alike come from different tables or passages of the source.

Tests used:
[1] = Release assay of active agents from PEG-DA fluid gel (trans-well, UV/Vis); assay type: physicochemical; settings: 3% v/v PEG-DA fluid gel (500 rpm), PBS 37° C., 5 hrs
Experimental: • Active amounts: […] • Standard concentrations of active in PBS were prepared. • Standards were pipetted into a quartz cuvette (1 mm pathlength). • […] spectroscopy was used to measure absorbance between 200 and 700 nm wavelength. • Curves were plotted and used to determine standard curves which were used to determine concentrations. • 0.5 ml PBS was added to the well of a 24 well plate. • The PBS was incubated at 37° C. to equilibrate. 0.1 ml of the fluid gel containing active was placed in a trans-well insert. • The trans-well insert was placed into a well containing PBS. • After a given time period the trans-well insert was removed and placed in a fresh well of PBS. • The release media was then removed and analysed using […] spectroscopy. Concentrations were derived from the standard curves and cumulative release plotted as a function of time.

[2] = tested on: primary ovine chondrocytes; test: PrestoBlue metabolic activity assay; assay type: cell-based
Experimental: All cell work was undertaken on primary ovine chondrocytes. Cells were first expanded, then seeded into wells 24 hrs prior to the application of the fluid gels. Once treatments were added, the cells were cultured for a further 3 days before testing for both metabolic activity and cell viability. In the presence of functionalised particles, suspension wells were used to promote adhesion to the gelled particles, away from the plastic. Metabolic activity assay was undertaken using a PrestoBlue™ assay kit (Invitrogen). In brief, cells were washed with Dulbecco's PBS, and 1 mL of PrestoBlue™ supplemented medium (10%) was added to each well and incubated for 4 hrs. 50 μL of supernatant from each well was transferred to one well of a 96 well plate and fluorescence was measured using a Tecan Spark (Tecan Group Ltd, UK) plate reader with excitation/emission wavelengths set at 550/620 nm.

Compound	release of active agent from fluid gel [1]	also measured
CC(C)Cc1ccc(C(C)C(=O)O)cc1 (stereo not shown) [Ibuprofen, ibuprofen]	able to release	
CC(C)(O)C(=O)c1ccc(OCCO)cc1 [Irgacure-2959, 1-[4-(2-Hydroxyethoxy)-phenyl]-2-hydroxy-2-methyl-1-propane-1-one]		cell metabolic activity, individual formulation components [2]: slight reduction in cell metabolism
CC(C)(O)C(=O)c1ccccc1 [Omnirad-1173, 2-hydroxy-2-methyl-1-phenylpropanone]		cell metabolic activity, individual formulation components ([2]; 3 days culture, PEG-DA not cured, 3.5% & 5%): slight reduction in cell metabolism, although not statistical
Dextran	able to release	
